Test results taken from patent US20230183808A1, “Methods of Detecting and Treating Cancers Characterized by Loss of miR15 and miR16 Expression” (priority 2020, published 2023).

What was measured:
[1] = system: miR-15a; assay: miR-15a expression by qRT-PCR after 5-Aza-2′-deoxycytidine treatment; assay type: cell-based, human; settings: 5 µM (MEG-01, THP-1, OCI-AML3) or 2.5 µM (U-937, MV4-11), 4 days; in a few cell lines; vs untreated; FIG. 5D
Experimental: (§1) FIGS. 5A-5F show genetic and epigenomic screening of AML cell lines. […] TBP was used as a loading control (TATA-binding protein). […] In FIGS. 5C and 5E, at least 3 clones are analyzed for each cell line. The CpG island is pictured and each vertical bar represent a single CpG (depicted by *) or a single non-CpG site. Black (CpG site) and grey (non-CpG site) squares represent methylated CpG and white squares represent unmethylated CpG.
(§2) Total RNA was isolated from human samples and cell lines using TRIzol (Invitrogen, Carlsbad, CA), following the provided instructions. For qRT-PCR, TaqMan miRNA assays (miR-15a#000389, miR-15b#000390, miR-16#000391, (Thermo Fisher Scientific, Waltham, MA)) were used to detect mature miRNAs. For all RNAs from AML patients, reverse transcription reactions were performed using the TaqMan miRNA Reverse Transcription Kit (Applied Biosystems, Foster City, CA) and a RT primer pool by pooling all miRNA-specific stem-loop primers of interest. […]
(§3) MEG-01, THP-1 and OCI-AML3 cells were treated with 5 µM 5-Aza-2′-deoxycytidine (5-Aza-dC) (Sigma-Aldrich, St. Louis, MO), whereas U-937 and MV4-11 cells were treated with 2.5 µM 5-Aza-dC. After 4 days of treatments (fresh drug was added every 24 hour), cells were harvested and total RNA was isolated and analyzed for qRT-PCR analysis. […]

[2] = system: miR-15b; assay: miR-15b expression by qRT-PCR after 5-Aza-2′-deoxycytidine treatment; assay type: cell-based, human; settings: 5 µM (MEG-01, THP-1, OCI-AML3) or 2.5 µM (U-937, MV4-11), 4 days; in a few cell lines; vs untreated; FIG. 5F
Experimental: as §1, §2, §3

SMILES: Nc1ncn([C@H]2C[C@H](O)[C@@H](CO)O2)c(=O)n1 [5-Aza-dC, 5-Aza-2′-deoxycytidine]
- expression of silenced miR-15a after treatment [1]: increased expression
- expression of silenced miR-15b after treatment [2]: increased expression
